Numbers after ± are expanded uncertainties.
Assays:
[1] = Adiabatic calorimetry
[2] = Molar enthalpy of transition or fusion; conditions: Adiabatic calorimetry

Row | Triple point temperature ([1]; Crystal) [K] | Molar enthalpy of transition or fusion ([2]; Crystal) [kcal/mol] | Glass transition temperature ([1]; Glass) [°C] | Triple point temperature ([1]; Metastable crystal) [K] | Molar enthalpy of transition or fusion ([2]; Metastable crystal) [kcal/mol] | Compound
1 | 351.35 ± 0.2 | 5.468 ± 0.0239 | – | – | – | CCCCn1cc[n+](C)c1.[Br-] [1-butyl-3-methylimidazolium bromide]
2 | 349.91 ± 0.2 | 4.36 ± 0.0574 | – | – | – | CCn1cc[n+](C)c1.[Br-] [1-ethyl-3-methylimidazolium bromide]
3 | 314.7 ± 0.5 | 3.23 ± 0.0478 | -64 ± 3 | 310.4 ± 0.5 | 5.11 ± 0.0717 | CCC[n+]1ccn(C)c1.[Br-] [1-methyl-3-propylimidazolium bromide]
